Reference: US20240287071A1, “CLASS OF IMIDAZOLIDINOPYRIMIDONE COMPOUNDS AND USE THEREOF IN TREATMENT OF HSCLPP-MEDIATED DISEASES” (SICHUAN UNIVERSITY, priority 2021, published 2024)
Like-named read-outs stand apart in the source and are kept apart here.

Key:
HsClpP [1] = target: T1, HsClpP (Homo sapiens, UniProt Q16740); test: HsClpP enzyme hydrolysis of short peptide substrate AC-WLA-AMC; conditions: for Regulatory efficacy 1 μM / Regulatory efficacy 10 μM: promoting hydrolysis of short peptide substrate by HsClpP, relative to blank control
Procedure: This study evaluated the regulatory activity of the compounds on HsClpP by examining the hydrolysis effects of HsClpP protein on the AC-WLA-AMC substrate . […] The small molecules and the HsClpP protein solution were added to a flat-bottomed black 96-well plate, with three replicate wells for each group. […] DMSO was used as a negative control instead of small molecules. The multiple of readings at different concentrations against the readings of DMSO group was recorded as an index for evaluation of hydrolysis activity. . . . GraphPad Prism was used to plot the obtained multiple values and calculate the EC50 values.

[2] = tested on: human normal embryonic kidney cells (HEK293); test: In vitro cytotoxicity assay, CCK-8; conditions: up to 50μM; FIG. 13
Procedure: (§2) CCK8 and DMSO were products of Sigma. For in vitro experiment, the test compounds were prepared as 10 mM stock solutions in DMSO and stored at −20° C. in the refrigerator in the dark for later use, then diluted to desired concentration with complete culture medium before use. […] The previous culture medium was discarded, fresh culture medium was added to resuspend the cells, and then the cells were counted. According to the growth rate of different cells, the cell seeding concentration was determined, generally being 3000-5000 cells/well. After determining the seeding concentration, the cell suspension was diluted to desired concentrations with fresh culture medium, and then added to a 96-well plate with 100 μL per well, and 200 μL of PBS was added to the edge wells to prevent evaporation of the culture medium. On the second day, drug treatment was performed.

HCT115 = test: CCK-8 in vitro anti-tumor proliferation assay; assay type: cell-based; conditions: Homo sapiens; Table 4; 72 hours
Procedure: (§1) Example 3: In vitro anti-tumor proliferation assay of the compounds. The purpose of this experiment was to use CCK-8 to detect the in vitro inhibitory activity of the compounds of the present invention against the proliferation of tumor cells. The main reagents, such as RPMI-1640, DMEM high-glucose culture medium, fetal bovine serum, trypsin, etc., were purchased from Gibco BRL. CCK8 and DMSO were products of Sigma. For in vitro experiment, the test compounds were prepared as 10 mM stock solutions in DMSO and stored at −20° C. in the refrigerator in the dark for later use, then diluted to desired concentration with complete culture medium before use. The human lung cancer cells, colon cancer cells, breast cancer cells, glioblastoma cells, human myelomonocytic leukemia cells, and human Burkitt's lymphoma cells used in this experiment were all purchased from the American ATCC company and preserved in laboratory of the inventors. All the above cell lines were cultured in RPMI-1640 complete medium or DMEM complete medium containing 10% fetal bovine serum, 100 U/mL penicillin, and 100 μg/mL streptomycin under 5% carbon dioxide, 37° C. conditions. […] The previous culture medium was discarded, fresh culture medium was added to resuspend the cells, and then the cells were counted. According to the growth rate of different cells, the cell seeding concentration was determined, generally being 3000-5000 cells/well. After determining the seeding concentration, the cell suspension was diluted to desired concentrations with fresh culture medium, and then added to a 96-well plate with 100 μL per well, and 200 μL of PBS was added to the edge wells to prevent evaporation of the culture medium. On the second day, drug treatment was performed. First, the compounds were diluted into a series of gradients with culture medium, and then the drug solution was added to the 96-well plate, with 3 parallel wells for each gradient. Each plate set a blank control group, and ONC201 was used as the positive control group.

MV-4-11 = test: CCK-8 in vitro anti-tumor proliferation assay; assay type: cell-based; conditions: Homo sapiens, read-out: IC50(uM) MV-4-11
Procedure: as §1

HCT116 = test: CCK-8 in vitro anti-tumor proliferation assay; assay type: cell-based; conditions: Homo sapiens, HCT-116, 72 hours
Procedure: as §1

SW620 = test: CCK-8 in vitro anti-tumor proliferation assay; assay type: cell-based; conditions: Homo sapiens, SW-620, 72 hours
Procedure: as §1

HT29 = test: CCK-8 in vitro anti-tumor proliferation assay; assay type: cell-based; conditions: Homo sapiens, HT-29; Table 4; 72 hours
Procedure: as §1

A172 = test: CCK-8 in vitro anti-tumor proliferation assay; assay type: cell-based; conditions: Homo sapiens, A 172; Table 3; 72 hours
Procedure: as §1

SW480 = test: CCK-8 in vitro anti-tumor proliferation assay; assay type: cell-based; conditions: Homo sapiens, Table 4, 72 hours
Procedure: as §1

A549 = test: CCK-8 in vitro anti-tumor proliferation assay; assay type: cell-based; conditions: Homo sapiens, read-out: IC50(uM) A549
Procedure: as §1

DLD1 = test: CCK-8 in vitro anti-tumor proliferation assay; assay type: cell-based; conditions: Homo sapiens, DLD-1, 72 hours
Procedure: as §1

Raji = test: CCK-8 in vitro anti-tumor proliferation assay; assay type: cell-based; conditions: Homo sapiens, read-out: IC50(uM) Raji
Procedure: as §1

HsClpP [3] = target: T1, HsClpP; test: Isothermal Titration calorimetry (ITC); assay type: binding; conditions: FIG. 3
Procedure: Isothermal Titration calorimetry experiments can measure the binding affinity between small molecules and proteins. Binding affinity is generally measured and reported through the equilibrium dissociation constant (Kd), where the smaller the Kd value, the higher the binding affinity of the ligand for its target. In the experiment, the loading-samples and proteins were placed in a degassing apparatus at 30° C., with a vacuum degree of 400 mmHg or higher, and degassed for 10 minutes. A 50 mL PBS buffer was prepared, and the sample cell and syringe were rinsed. After rinsing, the liquid in the sample cell was completely removed, and the degassed protein and small molecules were taken out. The sample cell was thoroughly washed with protein, and the syringe was rinsed with the small molecule solution 3-5 times. After washing, 250 μL of protein (0.5 mM) was extracted using the syringe, avoiding the formation of bubbles. Subsequently, 200 μL was injected into the sample cell. 50 μL of the small molecule solution (0.1 mM) was extracted using an injector, again avoiding the formation of bubbles. The titration syringe was loaded onto the instrument, and titration commenced after the instrument was balanced.

[4] = tested on: rat myocardial cells (H9C2); test: In vitro cytotoxicity assay, CCK-8; conditions: FIG. 13
Procedure: as §2

SDHB and ATF4 = test: Levels of SDHB and ATF4 in HCT116 cells; conditions: dose-dependently; FIG. 7
HCT116 cells [5] = test: Wound-healing cell migration assay; assay type: cell-based, human; conditions: 24 hours; compared to the control group and the ONC201 group; FIG. 12
From the text: Example 12: In vitro Antitumor Cell Migration Assay of Preferred Compound. Studies have shown that increased expression of HsClpP is crucial for the proliferation and migration of certain cancer cell lines, while functional disruption of HsClpP in cancer cells can inhibit cell migration.
Wound-Healingcan be used to detect the invasive ability of adherent tumor cells. By observing the healing ability of tumor cells towards scratches under different conditions, the impact of the compound on the ability of tumor cell migration can be reflected.

HCT116 cells [6] = test: Apoptosis, Annexin V/PI staining; conditions: 1.25 μM; FIG. 10
[7] = tested on: HCT116 CRC xenograft tumors; test: HCT116 xenograft nude mouse model; conditions: 100 mg/kg oral, twice a week, six doses
From the text: (A) Observation of tumor size in mice after treatment; (B) Photographs of excised tumor tissue after treatment; (C) Relative change in mouse body weight during treatment; (D) Relative volume change of tumors during treatment. Measurements were taken every other day; N=6 animals per group.

[8] = Table 4, read-out: IC50 ( M) HCT116
[9] = Table 5, HCT116, read-out: IC50
[10] = Table 3, read-out: IC50(uM) SW620
[11] = Table 4, read-out: IC50 ( M) SW620
[12] = Table 3, read-out: IC50(uM) DLD1
[13] = Table 4, read-out: IC50 ( M) DLD1

T1 sequence (Q16740 57-277): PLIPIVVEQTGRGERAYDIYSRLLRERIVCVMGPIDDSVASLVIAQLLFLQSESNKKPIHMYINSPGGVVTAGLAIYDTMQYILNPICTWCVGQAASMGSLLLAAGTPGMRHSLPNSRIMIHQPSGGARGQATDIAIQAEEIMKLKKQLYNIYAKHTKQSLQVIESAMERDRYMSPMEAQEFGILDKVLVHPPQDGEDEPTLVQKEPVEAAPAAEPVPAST

SMILES | Regulatory efficacy 1 μM (HsClpP [1]) | Regulatory efficacy 10 μM (HsClpP [1]) | IC50 (HCT115) [nM] | IC50 (MV-4-11; MV4-11, Table 3, 72 hours) [µM] | IC50 (HCT116; [8]) [M] | IC50 (HCT116; [9]) [M] | IC50 (SW620; [10]) [µM] | IC50 (SW620; [11]) [µM] | IC50 (HT29) [nM] | IC50 (A172) [µM] | IC50 (SW480) [nM] | IC50 (A549; A549, Table 3, 72 hours) [µM] | IC50 (DLD1; [12]) [µM] | IC50 (DLD1; [13]) [µM] | IC50 (Raji; Table 3, 72 hours) [µM] | further results
Cc1ccccc1CN1CCn2c1nc(=O)c1c2CCN(Cc2ccccc2)C1 [Compound 1, 7-benzyl-3-(2-methylbenzyl)-2,3,6,7,8,9-hexahydroimidazo[1,2-a]pyrido[3,4-e]pyrimidin-5(1H)-one] | + + | + + | 1300 | 0.8 | 4e-07 | 4e-07 | 0.6 | 0.6 | 5300 | 0.5 | 1100 | 2 | 0.2 | 0.5 | 1 | EC50 (HsClpP [1]; excitatory activity on HsClpP): 300 nM; cytotoxicity on HEK293 cells [2]: no significant cytotoxicity; ITC thermodynamics of titration with HsClpP (AH, AS) (HsClpP [3]): AH<0, AS<0; Kd, affinity for HsClpP (HsClpP [3]; compared to ONC201): much higher affinity for HsClpP compared to ONC201; inhibitory activity on H9C2 cells [4]: no significant inhibitory activity
O=c1nc2n(c3c1CN(Cc1ccccc1)CC3)CCN2Cc1ccc(F)cc1 [Compound 15, 7-benzyl-3-(4-fluorobenzyl)-2,3,6,7,8,9-hexahydroimidazo[1,2-a]pyrido[3,4-e]pyrimidin-5(1H)-one] | + + | + + | 200 | – | 8e-08 | 8e-08 | – | 0.19 | 400 | – | 170 | – | – | 0.09 | – | EC50 (HsClpP [1]): 100 nM
O=c1nc2n(c3c1CN(Cc1ccccc1)CC3)CCN2Cc1ccc(Cl)cc1 [Compound 16, 7-benzyl-3-(4-chlorobenzyl)-2,3,6,7,8,9-hexahydroimidazo[1,2-a]pyrido[3,4-e]pyrimidin-5(1H)-one] | + + | + + | 250 | – | 8e-08 | 8e-08 | – | 0.17 | 70 | – | 100 | – | – | 0.1 | – | –
O=c1nc2n(c3c1CN(Cc1ccccc1)CC3)CCN2Cc1ccc(C(F)(F)F)cc1 [Compound 18, 7-benzyl-3-(4-trifluoromethylbenzyl)-2,3,6,7,8,9-hexahydroimidazo[1,2-a]pyrido[3,4-e]pyrimidin-5(1H)-one] | + + | + + | – | 0.05 | – | 3e-07 | 0.5 | – | – | 0.2 | – | 0.2 | 0.15 | – | 0.1 | EC50 (HsClpP [1]): 300 nM
O=c1nc2n(c3c1CN(Cc1ccccc1)CC3)CCN2Cc1ccc(F)cc1F [Compound 19, 7-benzyl-3-(2,4-difluorobenzyl)-2,3,6,7,8,9-hexahydroimidazo[1,2-a]pyrido[3,4-e]pyrimidin-5(1H)-one] | + + | + + | 120 | 0.05 | 9e-08 | 1e-07 | 0.15 | 0.09 | 80 | 0.15 | 120 | 0.4 | 0.2 | 0.09 | 0.1 | –
O=c1nc2n(c3c1CN(Cc1ccccc1)CC3)CCN2Cc1ccc(F)c(F)c1 [Compound 20, 7-benzyl-3-(3,4-difluorobenzyl)-2,3,6,7,8,9-hexahydroimidazo[1,2-a]pyrido[3,4-e]pyrimidin-5(1H)-one] | + + | + + | 200 | 0.025 | 1e-07 | 1e-07 | 0.14 | 0.15 | 50 | 0.1 | 120 | 0.5 | 0.5 | 0.15 | 0.1 | –
O=c1nc2n(c3c1CN(Cc1ccccc1)CC3)CCN2Cc1ccc(F)c(Br)c1 [Compound 21, 7-benzyl-3-(3-bromo-4-fluorobenzyl)-2,3,6,7,8,9-hexahydroimidazo[1,2-a]pyrido[3,4-e]pyrimidin-5 (1H)-one] | + + | + + | – | – | – | – | – | – | – | – | – | – | – | – | – | ITC thermodynamics of titration with HsClpP (AH, AS) (HsClpP [3]): AH<0, AS<0; ATF4 level (SDHB and ATF4): ATF4 accumulation; SDHB level (SDHB and ATF4): reduction in SDHB level; migration ability of HCT116 cells (HCT116 cells [5]): significantly inhibited
Cc1ccccc1CN1C(=O)C2=C(CCN(Cc3ccccc3)C2)N2CCN=C12 [ONC201, reference compound] | – | – | – | – | – | – | – | – | – | – | – | – | – | – | – | cytotoxicity on HEK293 cells [2]: no significant cytotoxicity; apoptotic rate (HCT116 cells [6]): < 4.09%; IC50 (MV-4-11; MV4-11, 72 h): 5 µM; IC50 (A549; A549, 72 h): 10 µM; IC50 (Raji; 72 h): 2.5 µM; ATF4 level (SDHB and ATF4): ATF4 accumulation; SDHB level (SDHB and ATF4): reduction in SDHB level; inhibitory activity on H9C2 cells [4]: no significant inhibitory activity
Cc1ccccc1CN1C(=O)C2=C(CCN(Cc3ccccc3)C2)N2CCN=C12 [ONC201·2HCl] | – | – | – | – | – | – | – | – | – | – | – | – | – | – | – | TGI (tumor growth inhibition) [7]: 57%
